# Data reported in ChEMBL document CHEMBL6078616, “Seven-membered N-heterocycles as approved drugs and promising leads in medicinal chemistry as well as the metal-free domino access to their scaffolds” (Eur J Med Chem, 2024).
# Assays:
# [1] = target: Sigma intracellular receptor 2 (Homo sapiens, UniProt Q5BJF2); experiment: Binding affinity to TMEM97 (unknown origin) assessed as inhibition constant
# HeLa = experiment: cells; settings: Homo sapiens
# Description: Antiproliferative activity against human HeLa cells assessed as reduction in cell viability
# Histone deacetylase 5 = Histone deacetylase 5 (Homo sapiens, UniProt Q9UQL6); experiment: Inhibition of HDAC5 (unknown origin)
# Chain of Histone deacetylase 5 (Q9UQL6 whole entry): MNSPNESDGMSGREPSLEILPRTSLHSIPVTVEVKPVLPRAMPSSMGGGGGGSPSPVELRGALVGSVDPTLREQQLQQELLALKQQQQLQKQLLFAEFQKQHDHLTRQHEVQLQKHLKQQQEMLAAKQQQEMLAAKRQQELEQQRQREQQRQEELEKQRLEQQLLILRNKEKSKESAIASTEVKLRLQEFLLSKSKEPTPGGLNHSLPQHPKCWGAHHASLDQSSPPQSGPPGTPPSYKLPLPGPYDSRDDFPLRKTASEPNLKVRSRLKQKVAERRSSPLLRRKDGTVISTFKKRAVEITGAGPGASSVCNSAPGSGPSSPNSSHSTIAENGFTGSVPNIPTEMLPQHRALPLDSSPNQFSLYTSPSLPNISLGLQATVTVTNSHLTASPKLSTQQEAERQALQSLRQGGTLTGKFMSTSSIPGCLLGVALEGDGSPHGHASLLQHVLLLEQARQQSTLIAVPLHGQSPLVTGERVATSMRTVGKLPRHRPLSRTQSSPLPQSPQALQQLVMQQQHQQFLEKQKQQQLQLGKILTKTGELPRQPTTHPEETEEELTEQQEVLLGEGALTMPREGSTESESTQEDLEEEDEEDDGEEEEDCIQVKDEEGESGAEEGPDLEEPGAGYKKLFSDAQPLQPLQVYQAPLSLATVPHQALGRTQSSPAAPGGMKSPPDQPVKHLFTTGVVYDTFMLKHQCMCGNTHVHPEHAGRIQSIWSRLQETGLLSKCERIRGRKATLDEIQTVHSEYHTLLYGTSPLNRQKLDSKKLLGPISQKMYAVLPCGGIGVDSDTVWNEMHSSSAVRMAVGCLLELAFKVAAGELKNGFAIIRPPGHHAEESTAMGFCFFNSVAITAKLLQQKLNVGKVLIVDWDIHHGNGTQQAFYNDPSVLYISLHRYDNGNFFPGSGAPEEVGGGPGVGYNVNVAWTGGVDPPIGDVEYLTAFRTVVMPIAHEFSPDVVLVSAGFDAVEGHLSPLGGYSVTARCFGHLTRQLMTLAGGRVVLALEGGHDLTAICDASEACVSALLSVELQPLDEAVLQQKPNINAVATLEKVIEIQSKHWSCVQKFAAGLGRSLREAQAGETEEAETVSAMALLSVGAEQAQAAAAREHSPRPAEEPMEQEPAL
# Histone deacetylase 9 = Histone deacetylase 9 (Homo sapiens, UniProt Q9UKV0); experiment: Inhibition of HDAC9 (unknown origin)
# Chain of Histone deacetylase 9 (Q9UKV0 whole entry): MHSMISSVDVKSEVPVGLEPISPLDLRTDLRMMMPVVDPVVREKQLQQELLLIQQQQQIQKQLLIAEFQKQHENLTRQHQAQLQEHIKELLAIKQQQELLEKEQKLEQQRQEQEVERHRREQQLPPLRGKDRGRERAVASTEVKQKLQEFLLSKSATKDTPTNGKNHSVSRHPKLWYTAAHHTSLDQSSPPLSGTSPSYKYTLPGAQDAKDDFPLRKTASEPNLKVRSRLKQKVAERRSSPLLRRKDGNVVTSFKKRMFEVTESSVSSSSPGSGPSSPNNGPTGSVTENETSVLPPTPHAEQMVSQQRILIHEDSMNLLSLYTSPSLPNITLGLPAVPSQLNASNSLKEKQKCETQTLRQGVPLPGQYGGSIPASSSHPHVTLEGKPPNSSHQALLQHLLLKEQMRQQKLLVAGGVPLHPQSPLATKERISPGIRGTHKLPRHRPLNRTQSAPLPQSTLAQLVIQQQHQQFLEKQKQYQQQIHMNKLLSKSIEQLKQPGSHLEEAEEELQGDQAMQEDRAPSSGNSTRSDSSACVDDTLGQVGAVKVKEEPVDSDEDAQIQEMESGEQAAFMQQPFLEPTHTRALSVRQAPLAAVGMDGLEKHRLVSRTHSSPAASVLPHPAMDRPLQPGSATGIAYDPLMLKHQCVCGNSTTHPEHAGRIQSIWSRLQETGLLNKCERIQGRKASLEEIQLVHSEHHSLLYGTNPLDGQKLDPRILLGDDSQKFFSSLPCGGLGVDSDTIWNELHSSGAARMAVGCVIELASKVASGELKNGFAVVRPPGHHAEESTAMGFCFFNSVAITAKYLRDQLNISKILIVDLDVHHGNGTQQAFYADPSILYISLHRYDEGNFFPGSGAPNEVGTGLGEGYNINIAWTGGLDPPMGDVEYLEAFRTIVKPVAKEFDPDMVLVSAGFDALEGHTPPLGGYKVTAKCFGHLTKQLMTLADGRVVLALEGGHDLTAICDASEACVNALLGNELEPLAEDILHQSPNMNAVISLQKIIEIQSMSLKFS
# Histone deacetylase 11 = target: T1, Histone deacetylase 11 (Homo sapiens, UniProt Q96DB2); experiment: Inhibition of HDAC11 (unknown origin)
# T1 sequence (Q96DB2 whole entry): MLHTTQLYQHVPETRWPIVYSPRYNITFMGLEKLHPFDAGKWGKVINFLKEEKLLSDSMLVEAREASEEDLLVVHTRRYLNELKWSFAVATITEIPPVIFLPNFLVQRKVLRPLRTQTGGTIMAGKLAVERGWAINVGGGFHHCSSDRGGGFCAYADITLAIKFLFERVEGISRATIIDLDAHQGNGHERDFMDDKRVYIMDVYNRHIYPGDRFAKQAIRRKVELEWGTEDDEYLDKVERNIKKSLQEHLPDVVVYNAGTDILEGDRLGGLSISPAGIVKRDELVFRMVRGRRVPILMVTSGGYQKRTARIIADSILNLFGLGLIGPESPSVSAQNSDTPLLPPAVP
# Histone deacetylase 4 = Histone deacetylase 4 (Homo sapiens, UniProt P56524); experiment: Inhibition of HDAC4 (unknown origin)
# Chain of Histone deacetylase 4 (P56524 whole entry): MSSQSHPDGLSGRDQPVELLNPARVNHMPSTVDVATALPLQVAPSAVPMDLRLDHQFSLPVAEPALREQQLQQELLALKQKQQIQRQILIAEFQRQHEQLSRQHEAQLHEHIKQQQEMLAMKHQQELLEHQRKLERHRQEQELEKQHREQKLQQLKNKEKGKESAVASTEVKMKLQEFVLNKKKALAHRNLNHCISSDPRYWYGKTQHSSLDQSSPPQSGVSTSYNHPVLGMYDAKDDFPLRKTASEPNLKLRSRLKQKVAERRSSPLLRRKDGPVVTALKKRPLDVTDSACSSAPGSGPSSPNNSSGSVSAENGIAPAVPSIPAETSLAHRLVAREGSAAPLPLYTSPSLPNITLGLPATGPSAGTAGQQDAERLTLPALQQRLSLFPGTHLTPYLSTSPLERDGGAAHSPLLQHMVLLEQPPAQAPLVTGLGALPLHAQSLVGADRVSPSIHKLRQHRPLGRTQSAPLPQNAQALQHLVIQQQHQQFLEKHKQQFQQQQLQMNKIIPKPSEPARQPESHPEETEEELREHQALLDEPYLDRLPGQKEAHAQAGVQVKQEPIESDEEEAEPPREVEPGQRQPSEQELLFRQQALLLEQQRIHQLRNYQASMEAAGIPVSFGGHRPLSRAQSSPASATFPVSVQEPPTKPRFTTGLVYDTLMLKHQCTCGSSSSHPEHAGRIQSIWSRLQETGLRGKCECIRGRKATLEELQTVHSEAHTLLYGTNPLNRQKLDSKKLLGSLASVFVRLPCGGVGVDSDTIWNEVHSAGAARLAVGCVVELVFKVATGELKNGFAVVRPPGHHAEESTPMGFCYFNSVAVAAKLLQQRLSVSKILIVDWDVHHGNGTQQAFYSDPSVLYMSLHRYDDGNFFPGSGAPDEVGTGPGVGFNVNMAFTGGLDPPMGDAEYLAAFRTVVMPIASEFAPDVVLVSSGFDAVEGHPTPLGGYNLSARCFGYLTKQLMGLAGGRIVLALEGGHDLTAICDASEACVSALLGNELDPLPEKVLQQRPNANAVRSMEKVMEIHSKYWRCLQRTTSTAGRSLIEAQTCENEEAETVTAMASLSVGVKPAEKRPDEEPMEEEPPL
# [2] = target: T2, Polyamine deacetylase HDAC10 (Homo sapiens, UniProt Q969S8); experiment: Inhibition of HDAC10 (unknown origin)
# T2 sequence (Q969S8 whole entry): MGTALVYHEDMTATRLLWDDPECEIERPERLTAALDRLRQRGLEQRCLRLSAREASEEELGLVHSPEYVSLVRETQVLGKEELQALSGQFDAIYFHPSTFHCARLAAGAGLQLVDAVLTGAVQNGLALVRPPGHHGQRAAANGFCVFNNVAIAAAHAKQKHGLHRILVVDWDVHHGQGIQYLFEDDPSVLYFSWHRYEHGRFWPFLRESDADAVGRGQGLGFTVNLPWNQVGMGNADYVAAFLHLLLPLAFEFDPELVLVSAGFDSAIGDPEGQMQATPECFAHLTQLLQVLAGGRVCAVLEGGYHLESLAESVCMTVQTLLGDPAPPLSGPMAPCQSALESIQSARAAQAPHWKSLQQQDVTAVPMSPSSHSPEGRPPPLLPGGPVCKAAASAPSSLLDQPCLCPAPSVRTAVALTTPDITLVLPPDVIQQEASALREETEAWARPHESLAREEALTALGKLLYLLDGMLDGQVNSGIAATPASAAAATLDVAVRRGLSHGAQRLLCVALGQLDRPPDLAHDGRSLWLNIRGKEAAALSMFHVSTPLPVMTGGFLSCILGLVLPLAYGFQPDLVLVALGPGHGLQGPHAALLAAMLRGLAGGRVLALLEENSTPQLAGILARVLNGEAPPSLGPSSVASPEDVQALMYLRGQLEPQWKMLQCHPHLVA
# Histone deacetylase 3 = Histone deacetylase 3 (Homo sapiens, UniProt O15379); experiment: Inhibition of HDAC3 (unknown origin)
# Chain of Histone deacetylase 3 (O15379 whole entry): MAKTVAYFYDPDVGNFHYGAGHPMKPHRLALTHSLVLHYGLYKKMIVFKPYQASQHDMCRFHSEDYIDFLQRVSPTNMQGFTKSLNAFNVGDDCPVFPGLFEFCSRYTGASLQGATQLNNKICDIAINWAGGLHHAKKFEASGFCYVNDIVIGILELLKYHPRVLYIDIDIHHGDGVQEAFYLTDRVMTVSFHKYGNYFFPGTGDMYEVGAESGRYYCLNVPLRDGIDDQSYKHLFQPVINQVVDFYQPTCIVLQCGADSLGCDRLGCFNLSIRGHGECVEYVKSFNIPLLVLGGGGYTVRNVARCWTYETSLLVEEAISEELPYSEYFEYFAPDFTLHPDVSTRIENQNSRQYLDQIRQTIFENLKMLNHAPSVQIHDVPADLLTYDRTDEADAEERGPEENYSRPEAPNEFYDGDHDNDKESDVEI
# [3] = target: T3, Protein deacetylase HDAC6 (Homo sapiens, UniProt Q9UBN7); experiment: Inhibition of HDAC6 (unknown origin)
# T3 sequence (Q9UBN7 whole entry): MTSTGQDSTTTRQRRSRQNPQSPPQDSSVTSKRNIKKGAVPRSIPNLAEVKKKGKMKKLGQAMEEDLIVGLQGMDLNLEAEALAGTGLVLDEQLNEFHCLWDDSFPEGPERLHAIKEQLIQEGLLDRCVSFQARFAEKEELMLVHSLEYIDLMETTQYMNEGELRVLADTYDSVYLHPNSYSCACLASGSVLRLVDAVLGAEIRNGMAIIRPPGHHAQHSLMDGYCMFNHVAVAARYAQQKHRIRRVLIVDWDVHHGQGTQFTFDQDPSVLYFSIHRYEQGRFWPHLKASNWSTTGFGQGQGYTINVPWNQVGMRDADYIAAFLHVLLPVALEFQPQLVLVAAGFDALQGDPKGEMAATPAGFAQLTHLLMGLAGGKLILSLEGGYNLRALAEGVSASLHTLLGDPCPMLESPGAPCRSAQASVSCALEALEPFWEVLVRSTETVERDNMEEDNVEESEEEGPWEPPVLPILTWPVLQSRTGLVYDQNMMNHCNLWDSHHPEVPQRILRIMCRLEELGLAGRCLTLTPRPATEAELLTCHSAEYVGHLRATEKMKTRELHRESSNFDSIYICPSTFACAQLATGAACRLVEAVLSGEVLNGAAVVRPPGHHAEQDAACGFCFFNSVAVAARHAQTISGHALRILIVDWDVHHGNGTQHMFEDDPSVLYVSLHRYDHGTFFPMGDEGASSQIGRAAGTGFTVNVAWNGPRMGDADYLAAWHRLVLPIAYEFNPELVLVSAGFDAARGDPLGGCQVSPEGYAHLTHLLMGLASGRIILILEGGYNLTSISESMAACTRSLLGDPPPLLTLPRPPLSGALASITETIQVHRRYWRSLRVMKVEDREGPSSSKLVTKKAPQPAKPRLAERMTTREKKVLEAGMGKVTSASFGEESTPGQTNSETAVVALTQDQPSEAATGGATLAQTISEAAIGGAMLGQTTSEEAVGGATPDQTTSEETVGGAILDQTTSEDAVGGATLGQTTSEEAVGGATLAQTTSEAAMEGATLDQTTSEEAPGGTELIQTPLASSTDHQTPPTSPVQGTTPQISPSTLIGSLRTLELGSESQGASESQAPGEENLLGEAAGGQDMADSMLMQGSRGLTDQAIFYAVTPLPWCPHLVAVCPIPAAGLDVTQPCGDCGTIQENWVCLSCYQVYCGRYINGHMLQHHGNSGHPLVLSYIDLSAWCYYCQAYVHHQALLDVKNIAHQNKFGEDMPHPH
# Histone deacetylase 1 = Histone deacetylase 1 (Homo sapiens, UniProt Q13547); experiment: Inhibition of HDAC1 (unknown origin)
# Chain of Histone deacetylase 1 (Q13547 whole entry): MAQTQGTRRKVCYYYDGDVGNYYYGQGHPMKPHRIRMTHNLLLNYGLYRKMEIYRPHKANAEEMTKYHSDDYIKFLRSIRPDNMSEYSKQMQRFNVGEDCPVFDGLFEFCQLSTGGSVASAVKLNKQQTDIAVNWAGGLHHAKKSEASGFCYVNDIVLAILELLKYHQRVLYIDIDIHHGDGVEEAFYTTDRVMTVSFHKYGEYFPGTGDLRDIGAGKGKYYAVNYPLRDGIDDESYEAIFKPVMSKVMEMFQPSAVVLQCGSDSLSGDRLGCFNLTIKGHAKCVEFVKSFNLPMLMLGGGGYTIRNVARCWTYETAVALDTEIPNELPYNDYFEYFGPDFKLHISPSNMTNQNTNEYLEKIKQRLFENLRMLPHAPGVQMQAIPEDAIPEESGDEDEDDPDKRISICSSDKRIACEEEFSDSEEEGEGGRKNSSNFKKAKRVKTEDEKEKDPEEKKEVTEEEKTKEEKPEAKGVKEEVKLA
# Histone deacetylase 8 = target: T4, Histone deacetylase 8 (Homo sapiens, UniProt Q9BY41); experiment: Inhibition of HDAC8 (unknown origin)
# T4 sequence (Q9BY41 whole entry): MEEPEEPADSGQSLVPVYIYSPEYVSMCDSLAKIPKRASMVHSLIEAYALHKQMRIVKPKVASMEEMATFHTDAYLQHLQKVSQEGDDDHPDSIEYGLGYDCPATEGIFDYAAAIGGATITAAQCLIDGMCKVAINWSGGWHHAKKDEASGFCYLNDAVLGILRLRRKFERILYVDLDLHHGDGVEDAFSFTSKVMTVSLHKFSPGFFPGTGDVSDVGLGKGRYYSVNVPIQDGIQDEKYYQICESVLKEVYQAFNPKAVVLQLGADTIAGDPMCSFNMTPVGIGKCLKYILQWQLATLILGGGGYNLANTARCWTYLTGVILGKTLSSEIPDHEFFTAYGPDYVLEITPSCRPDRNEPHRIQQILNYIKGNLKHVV
# Trypanosoma cruzi = experiment: Antitrypanosomal activity against Trypanosoma cruzi Y strain trypomastigotes […] in African green monkey Vero cells assessed as inhibition of parasite growth incubated for 24 hrs by Neubauer chamber based analysis; assay type: functional, organism-based
# Leishmania infantum = experiment: Antileishmanial activity against Leishmania infantum promastigote assessed as reduction in parasite growth after 72 hrs by MTT assay; assay type: functional, organism-based
# [4] = Cytotoxicity against African green monkey Vero cells assessed as reduction in cell viability incubated for 72 hrs by MTT assay; assay type: toxicity, cell-based; settings: chlorocebus sabaeus
# [5] = Cytotoxicity against human THP-1 cells assessed as reduction in cell viability; assay type: toxicity, cell-based
# Chain of Sigma intracellular receptor 2 (Q5BJF2 whole entry): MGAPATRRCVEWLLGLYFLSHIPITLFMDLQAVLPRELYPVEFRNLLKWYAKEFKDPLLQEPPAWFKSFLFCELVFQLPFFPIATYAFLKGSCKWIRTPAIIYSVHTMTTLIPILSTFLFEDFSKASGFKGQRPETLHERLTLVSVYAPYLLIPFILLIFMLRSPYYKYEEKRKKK
Structure (SMILES),IC50 (Trypanosoma cruzi) [µM],IC50 (Leishmania infantum) [µM],CC50 at 72 h [4] [µM],CC50 [5] [µM],further results
CN1CCN(c2ccc3c(c2)C2CC3CCN2C(=O)OCc2ccc(F)cc2)CC1 (centres undefined),,,,,Ki [1]: 0.011 µM
COC(=O)Nc1nc2cc(C(=O)c3cccs3)ccc2[nH]1 [NOCODAZOLE],,,,,IC50 (HeLa): > 2 µM
O=C(NO)c1ccc(CN2c3ccccc3SC[C@H]3CCCCC[C@H]32)cc1,,,,,IC50 (Histone deacetylase 5): > 30 µM; IC50 (Histone deacetylase 9): > 30 µM; IC50 (Histone deacetylase 11): 1.2 µM; IC50 (Histone deacetylase 4): > 30 µM; IC50 [2]: > 30 µM; IC50 (Histone deacetylase 3): > 30 µM; IC50 [3]: 0.03 µM; IC50 (Histone deacetylase 1): > 30 µM; IC50 (Histone deacetylase 8): 6.7 µM
O=[N+]([O-])c1ccc([C@@H]2C[C@H]3Cc4ccc5ccccc5c4N2O3)o1,8.6,13.9,85.4,931,
OCCCN1CCC2CC1c1cc(-c3ccc(C(F)(F)F)cc3)ccc12 (centres undefined),,,,,Ki [1]: 0.046 µM
O=C1Cc2c([nH]c3ccc(Br)cc23)-c2ccccc2N1 [KENPAULLONE],,,,,IC50 (HeLa): > 2 µM
O[C@@H]1Cc2cc(Br)c3ccccc3c2N[C@H](c2cccc(Cl)c2Cl)C1,3.3,11.8,40.1,59.8,
O=[N+]([O-])c1ccc([C@@H]2C[C@H]3Cc4ccc5ccccc5c4N2O3)cc1,8.6,5,> 903,> 903,
CCN1CCN(c2ccc3c(c2)C2CCN(C(=O)OCc4ccccc4)C3C2)CC1 (centres undefined),,,,,Ki [1]: 0.116 µM
O=C1Cc2cnn(-c3cccc(Br)c3)c2-c2ccccc2N1,,,,,IC50 (HeLa): 1.32 µM
O=C1Cc2cnn(-c3cc(Cl)cc(Cl)c3)c2-c2ccccc2N1,,,,,IC50 (HeLa): 1.32 µM
Cc1ccc([C@@H]2C[C@H]3Cc4ccc5ccccc5c4N2O3)o1,9.6,15.4,94.5,22.5,
Cc1ccccc1[C@@H]1C[C@H](O)Cc2ccc3ccccc3c2N1,2.5,36.2,36.1,41.6,
COc1cccc([C@@H]2C[C@H]3Cc4cc(Br)c5ccccc5c4N2O3)c1,11.9,40.1,> 1520,> 1520,
Cc1ccccc1[C@@H]1C[C@H](O)Cc2cc(Br)c3ccccc3c2N1,7.1,7.7,113,7.1,
Cc1ccc([C@@H]2C[C@H]3Cc4ccc5ccccc5c4N2O3)s1,11.3,10.9,498,> 977,
FC(F)(F)c1ccc(-c2ccc3c(c2)C2CC3CCN2C2CCCC2)cc1 (centres undefined),,,,,Ki [1]: 0.061 µM
O=C(NO)c1ccc(CN2c3ccccc3S(=O)(=O)C[C@H]3CCCC[C@H]32)cc1,,,,,IC50 [3]: 0.1 µM
O[C@@H]1Cc2cc(Br)c3ccccc3c2N[C@H](c2cccc(Cl)c2)C1,6.3,48.2,10,45.1,
O[C@@H]1Cc2cc(Br)c3ccccc3c2N[C@H](c2ccccc2)C1,12.2,617,25.3,24,
Brc1ccc([C@@H]2C[C@H]3Cc4ccc5ccccc5c4N2O3)s1,8.3,21.6,> 809,> 809,
CC1CS(=O)(=O)CCN1/N=C/c1ccc([N+](=O)[O-])o1 (centres undefined) [NIFURTIMOX],,,67.5,,
O[C@@H]1Cc2cc(Br)c3ccccc3c2N[C@H](c2ccccc2Cl)C1,11.1,8.9,16,11.1,
O=C1Cc2cnn(-c3cc(Cl)cc(Cl)c3)c2-c2cc(Br)ccc2N1,,,,,IC50 (HeLa): 1.32 µM
C[C@@H]1[C@H](O)[C@@H](C)/C=C/C=C/C=C/C=C/C=C/C=C/C=C/[C@H](O[C@@H]2O[C@H](C)[C@@H](O)[C@H](N)[C@@H]2O)C[C@@H]2O[C@](O)(C[C@@H](O)C[C@@H](O)[C@H](O)CC[C@@H](O)C[C@@H](O)CC(=O)O[C@H]1C)C[C@H](O)[C@H]2C(=O)O [AMPHOTERICIN B],,0.01,,,
